Experiments:
[1] = system: ATP-binding proteins in HEK 293T cell lysates; assay: In-gel fluorescence imaging of HEK 293T cell lysates labeled with the ATP-N probe; settings: FIG. 23a, in-gel fluorescence
[2] = system: ATP-binding proteins in HEK 293T cell lysates; assay: Proteomic LC-MS/MS (LFQ) analysis of HEK 293T cell lysates labeled with the ATP-N probe, ATP competition; parameters: species or system human
Description: (§1) 1 mg of cell lysate was labeled with 10 μM ATP-N probe. The subsequent steps were the same as in Section 1.3 of Example 3.
(§2) The C18 pre-column (Thermo Fisher, 164564-CMD, 100 μm×2 cm) and analytical column (Thermo Fisher, 164941, 75 μm×25 cm) used in the LC-MS/MS analysis were commercially available. The liquid chromatography (Vanquish Neo, Thermo Fisher) settings were as follows: Solvent A was 98% H2O with 0.1% FA, and Solvent B was 98% ACN with 0.1% FA. The flow rate was 300 nL/min, with the elution gradient as follows: 0 minutes, 2% B; 5 minutes, 26% B; 127 minutes, 36% B; 137 minutes, 72% B; 142 minutes, 80% B; and 143-153 minutes, 80% B. The mass spectrometer (Orbitrap Exploris 480, Thermo Fisher) settings were: full MS scan in positive ion mode, electrospray ion source voltage 1.9 kV, ion transfer tube temperature 320° C., scan m/z range 350-1500, resolution of 120000, AGC target 300%, maximum injection time 25 ms. For dd-MS^2, resolution was 15000, AGC target 50%, maximum injection time was automatically selected, and the cycle time for MS scanning was set to 3 s. DDA mode was used for data acquisition and the data collection time was 0-142 minutes.
The obtained MS raw files were analyzed using Proteome Discoverer 2.5 software, and searched against the Uniprot human protein database (as of November 2022, total proteins: 20401). Enzyme specificity was set to trypsin, cysteine carbamidomethylation was set as a fixed modification, and methionine oxidation and N-terminal acetylation were set as variable modifications.
HEK 293T cell lysates were labeled with 10 μM ATP-N probe. Labeled proteins were enriched with streptavidin beads, and digested with trypsin to prepare peptide samples for LC-MS/MS analysis. Adding 100 μM ATP as the competitor during probe labeling, the labeling of ATP-binding proteins would be interfered. Compared with the probe-labeling group without competitors, more specific ATP-binding proteins could be identified with label-free quantitative (LFQ) analysis.

[3] = biological target: T1, N-acetylglucosamine kinase (NAGK) (Homo sapiens, UniProt Q9UJ70); assay: Identification of ATP-N probe-modified site by LC-MS/MS; settings: near ATP-binding pocket, FIG. 26a
T1 construct: in the samples of HEK 293T cell lysates labeled with the ATP-N probe; endogenous in cells; host or cells: HEK 293T cell lysate
T1 sequence (Q9UJ70 whole entry): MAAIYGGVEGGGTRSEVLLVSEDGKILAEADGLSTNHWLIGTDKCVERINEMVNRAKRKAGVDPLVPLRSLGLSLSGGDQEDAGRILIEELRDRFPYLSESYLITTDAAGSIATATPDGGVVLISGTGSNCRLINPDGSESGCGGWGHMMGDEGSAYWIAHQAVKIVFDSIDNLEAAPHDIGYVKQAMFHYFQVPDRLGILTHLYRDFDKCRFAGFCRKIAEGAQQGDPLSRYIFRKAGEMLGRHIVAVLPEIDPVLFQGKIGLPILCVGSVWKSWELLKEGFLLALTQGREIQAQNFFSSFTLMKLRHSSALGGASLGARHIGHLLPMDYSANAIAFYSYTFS
Description: as §1, §2
(§3) The obtained MS raw files were analyzed using Proteome Discoverer 2.5 software, and searched against the Uniprot human protein database (as of November 2022, total proteins: 20401). […]

[4] = biological target: T2, VRK1 (Homo sapiens, UniProt Q99986); assay: as above; settings: close to ATP-binding pocket, FIG. 26b
T2 construct: in the samples of HEK 293T cell lysates labeled with the ATP-N probe; endogenous in cells; host or cells: HEK 293T cell lysate
T2 sequence (Q99986 1-396): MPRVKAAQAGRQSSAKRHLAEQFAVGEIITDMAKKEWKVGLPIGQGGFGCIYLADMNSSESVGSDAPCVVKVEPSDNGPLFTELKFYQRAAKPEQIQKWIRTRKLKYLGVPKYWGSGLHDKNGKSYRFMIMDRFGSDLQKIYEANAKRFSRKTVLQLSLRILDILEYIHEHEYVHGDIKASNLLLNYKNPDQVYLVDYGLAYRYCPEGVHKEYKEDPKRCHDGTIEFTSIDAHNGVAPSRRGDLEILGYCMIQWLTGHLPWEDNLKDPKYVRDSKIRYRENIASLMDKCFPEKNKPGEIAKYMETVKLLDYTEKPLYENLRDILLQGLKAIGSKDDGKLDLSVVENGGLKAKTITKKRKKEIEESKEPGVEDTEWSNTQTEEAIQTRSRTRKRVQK
Description: as §1, §2, §3

[5] = Stability analysis of the probes under three pH conditions with HPLC; format: physicochemical; settings: acidic condition with trifluoroacetic acid (pH=3), 0.4 mM probe, 37° C.
Description: Probes were incubated with 0.4 mM final concentration in different buffer at 37° C. for different time, and 10 μL of solution was taken out at each time point for HPLC analysis. A analytical column (Welch, Ultimate XB-C18, 5 μm, 4.6×250 mm) was used for the analysis, and untreated probes were used as controls. The mobile phase A was 50 mM […] (TEAA) buffer (pH=8), the mobile phase B was 50 mM TEAA in 30% ACN, the flow rate was 1 mL/min, the detection wavelength was 252 nm, and the column temperature was 30° C. Gradient elution conditions were as follows: 0-5 minutes, 5% B; 5-10 minutes, 5-30% B; 10-30 minutes, 30-40% B; 30-35 minutes, 40-100% B; 35-40 minutes, 100% B; 45-50 minutes, 5% B.

[6] = system: GTP-binding proteins in HEK 293T cell lysates; assay: In-gel fluorescence imaging of HEK 293T cell lysate labeled with the GTP probes
Description: Appropriate amount cells were incubated on ice for 30 min in 1% lysis buffer (1% Triton X-100, 50 mM HEPES (pH 7.4), 150 mM NaCl, supplemented with phosphatase inhibitor A, phosphatase inhibitor B, and protease inhibitor right before use) at 5-10 times the cell volume. Vortexing for 5 seconds every 10 minutes. The cell lysates were centrifuged at 12,000 rpm at 4° C. for 30 min, and the supernatants were passed through an Amersham NAP-5 column to remove endogenous nucleosides. The proteins were quantified using a Bradford protein assay kit. Approximately 100 μg protein was diluted with 0.1% lysis buffer (0.1% Triton X-100, 50 mM HEPES, 150 mM sodium chloride). To the solution was added 1 mM magnesium chloride, the GTP probe and competitors to designated concentrations. The final volume for the reaction was 100 μL and the final protein concentration was […]. After incubated on ice, the solution was irradiated with 365-nm UV light for 30 min. To the solution were added freshly prepared tris-(2-carboxyethyl)phosphine (TCEP) until its concentration reached 1 mM, and a CuAAC reaction mixture to reach a final concentration of 1 mM CuSO4, 0.1 mM tris[(1-benzyl-1H-1,2,3-triazol-4-yl)methyl]amine (TBTA), and 0.1 mM rhodamine β-PEG3-azide. The mixture was incubated at room temperature for 2 hrs and then precipitated in a solution of chloroform: methanol: water (4:3:1, v/v). After washing with cold methanol and air dried, the protein pellet was dissolved in 30 μL 4% SDS buffer (4% SDS, 50 mM HEPES (pH 7.4), 150 mM NaCl, 50 mM Trolamine). The protein concentration was determined using a BCA protein assay kit. A solution of approximately 20 μg proteins was added 4×loading buffer (0.25M Trometamol, pH=6.8, 4% SDS, 40% Glycerol, 0.02% bromophenol blue, add 200 μL 2-Mercaptoethanol to 800 μL buffer right before use), boiled at 95° C. for 5 min and loaded onto an SDS-PAGE gel (4% stacking gel, 10% separating gel). Then perform SDS-PAGE separation at a constant voltage of 90 V for about 110 minutes. At the end of electrophoresis, cut the separation gel and imaged with an Amersham Imager 600 (GE Healthcare) at 520 nm. The gel was then stained with Coomassie Brilliant Blue staining solution (0.1% Coomassie brilliant blue, 10% acetic acid, 50% methanol) for 30 min and destained with destaining solution (10% acetic acid, 30% methanol) to remove background color.

[7] = system: GTP-binding proteins in HEK 293T cell lysates; assay: Proteomic LC-MS/MS analysis of HEK 293T cell lysate labeled with GTP probes; parameters: species or system human
Description: Under optimized conditions, HEK 293T cell lysates were labeled using the GTP photoaffinity probes. Peptide samples were prepared via the On-Beads enzymatic digestion method for proteomic study. Approximately 1 mg of proteins was labeled with 0.1 mM GTP probe and irradiated with 365-nm UV light for 30 min. To the solution were added freshly prepared tris-(2-carboxyethyl)phosphine (TCEP) until its concentration reached 1 mM, and a CuAAC reaction mixture to reach a final concentration of 1 mM CuSO4, 0.1 mM tris[(1-benzyl-1H-1,2,3-triazol-4-yl)methyl]amine (TBTA), and 0.5 mM biotin-PEG3-azide (for GTP-O probe labeled samples), or 0.5 mM biotin-DADPS-azide (for GTP-N probe labeled samples). The mixture was vortexed at room temperature for 2 hours and then precipitated in ice-cold methanol overnight.
The precipitated proteins were dissolved in 100 μL 4% SDS buffer (4% SDS, 150 mM NaCl, 50 mM HEPES, pH=7.4), and diluted with 900 μL SDS-free HEPES buffer (150 mM NaCl, 50 mM HEPES, pH=7.4). High-capacity streptavidin beads (50 μL per sample) were washed three times with 20 times volume of wash buffer (150 mM sodium chloride, 50 mM HEPES, pH=7.4) before adding to the samples. After incubation on a rotary shaker at room temperature for 2 hours, non-specifically bound proteins were washed away in a centrifugal filtration column using 1× PBS containing 1% SDS, 10× PBS, 1× PBS, water, and 50 mM ammonium bicarbonate solution with 8 M urea, each wash using 1 mL of solution for five times. The beads were transferred to a centrifuge tube using 50 mM ammonium bicarbonate solution containing 8 M urea and resuspended with 500 μL of this solution. The disulfide bonds were reduced by adding 20 mM TCEP and incubating at 37° C. for 1 hour, and then alkylated with 50 mM iodacetamide at room temperature in the dark for 30 minutes. After centrifugation at 3000 rpm for 2 minutes, the supernatant was gently removed. The beads were washed with 25 mM ammonium bicarbonate three times, resuspended in 100 μL 25 mM ammonium bicarbonate, and incubated with 1 μg of MS-grade trypsin (1 μg/μL) at 37° C. for 18 hrs.
The beads were washed with 200 μL of 25 mM ammonium bicarbonate solution, then centrifuged at 12000 rpm for 2 minutes to collect the supernatant. The procedure was repeated 6 times, and the supernatants were combined to obtain sample 1 (peptides without probe modification). For GTP-O probe labeled samples, the beads were resuspended in 200 μL of 70% acetonitrile solution containing 1% trifluoroacetic acid, vortexed for 5 minutes, then centrifuged at 12000 rpm for 2 minutes to collect the supernatant. The procedure was repeated 5 times, and the supernatants were combined to obtain sample 2 (containing probe-modified peptides). For GTP-N probe labeled samples, the beads were resuspended in 100 μL of 10% formic acid, incubated on a rotary shaker at room temperature for 30 minutes, then centrifuged at 12000 rpm for 2 minutes to collect the supernatant. The procedure was repeated 3 times, and the supernatants were combined. Trifluoroacetic acid was added to a final concentration of 1%, and incubated at 37° C. for 30 minutes to obtain sample 2. The peptide solutions were dried with a centrifugal concentrator and desalted using C18 tips, then frozen at −80° C. until LC-MS/MS detection. Samples were dissolved in 20 μL of pure water, 4 μL of sample 1 and 8 μL of sample 2 were injected for analysis.
An EASY-nLC 1200 liquid chromatography coupled with a Q-Exactive Orbitrap mass spectrometer was employed for LC-MS/MS analysis. A homemade C18 capillary column (inner diameter 75 μm, column length 18 cm) packed with Reprosil-Pur120 C18-AQ (Dr. maisch, particle size […]) was utilized as the separation column. The precolumn (inner diameter 150 μm, column length 4 cm) was packed with Reprosil-Pur120 C18-AQ (Dr. maisch, particle size 5 μm,). The mobile phase A was 0.1% formic acid, while mobile phase B was 0.1% formic acid in 80% acetonitrile, and the flow rate was 300 nL/min. […]

[8] = system: ATP-binding proteins, including kinases; assay: Staurosporine competitive ATP-N probe labeling of cell lysates, LC-MS/MS; parameters: species or system human; settings: staurosporine at 1×, 10×, 20× concentration of the ATP-N probe; one biological replicate
Description: The preparation of mass spectrometry samples was the same as in Section 1.3 of Example 7, except that ATP was replaced with different concentrations of staurosporine.
Prior to probe labeling, cell lysates were pre-incubated on ice with staurosporine at 1×, 10×, and 20× concentration of the ATP-N probe, and compared with the control group without staurosporine treatment. Potential target proteins of kinase inhibitors were screened based on the abundance ratio between the competition group and the control group through LC-MS/MS analysis. Theoretically, as the concentration of the inhibitor increases, the labeling efficiency of its target proteins should gradually decrease. Therefore, proteins were screened based on their abundance ratios ([…]), identifying proteins whose detected abundance decreased with increasing inhibitor concentrations. Proteins with lower confidence were filtered out, leaving proteins that met the criteria for further analysis. Most proteins with reduced labeling efficiency after staurosporine treatment were ATP-binding proteins, including kinases, and this trend increased with higher inhibitor concentrations. […] Since the data presented in this example represent only one biological replicate, there may be some errors. Typically, using the average values and p-values from three biological replicates would yield more reliable results.

[9] = GO-MF analysis of screened proteins
[10] = three biological replicates, 0.1 mM probe, control probe = GTP-ctrl probe

C#CCCC1(CCNP(=O)(O)OP(=O)(O)OP(=O)(O)OC[C@H]2O[C@@H](n3cnc4c(N)ncnc43)C(O)[C@H]2O)N=N1 (stereo partly shown) [ATP-N probe]
lowest probe concentration showing clear fluorescent bands [1]: 1 µM
proteins with significantly decreased intensity in the ATP competition group ([2]; 10 μM probe, 100 μM ATP, all three replicates, ratio>2, p-value<0.05): More than 160
of these, kinases [2, 9]: around 78
of these, previously annotated ATP-binding proteins [2, 9]: approximately 129
share of annotated ATP-binding proteins among all screened proteins [2, 9]: over 80%
proteins with significantly decreased intensity in the competition group, probe-modified peptides ([2]; quantitative analysis of probe-modified peptides, all three replicates, ratio>2, p-value<0.05): About 44
probe-modified residue [3]: Glu16
probe-labeled residue [4]: Glu73

C#CCCC1(CCNP(=O)(O)OP(=O)(O)OP(=O)(O)OC[C@H]2O[C@@H](n3cnc4c(=O)[nH]c(N)nc43)C(O)[C@H]2O)N=N1 (stereo partly shown) [GTP-N probe]
time after which probe decomposed [5]: 0.5 h
protein labeling (in-gel fluorescence) ([6]; 0.1 mM probe, 1 mM MgCl2, FIG. 10a): stronger protein labeling compared to the GTP-O probe
probe concentration at which cell lysate is effectively labeled ([6]; FIG. 9a (GTP-N probe), 365 nm UV, in-gel fluorescence): 50 µM
probe-modified sites on labeled proteins ([7]; LC-MS/MS of sample 2 (probe-modified peptides)): several modified peptides of GTP-binding proteins were identified
selectivity for annotated GTP-binding proteins ([7]; competition with GTP at 10 times probe concentration, LFQ, three biological replicates): better selectivity than the GTP-O probe
GTP-binding proteins identified [7, 10]: 115
total proteins identified [7, 10]: 2461

CN[C@@H]1C[C@H]2O[C@@](C)([C@@H]1OC)n1c3ccccc3c3c4c(c5c6ccccc6n2c5c31)C(=O)NC4 [staurosporine, Staurosporine]
proteins with significantly reduced ATP-N probe labeling in the competition group [8]: several known staurosporine targets were identified

From patent US20240400604A1, “NUCLEOSIDE TRIPHOSPHATE PHOTOAFFINITY PROBE, METHOD FOR PREPARING SAME, AND APPLICATIONS THEREOF” (SHANDONG UNIVERSITY, priority 2023, published 2024)
